According to patent US9663460B2, “Sulfur derivatives as chemokine receptor modulators” (ALLERGAN, INC., priority 2010, dated 2017):

Target: CCR2 (Homo sapiens (Human), UniProt P41597)
Test: Calcium activity assayed on the FLIPR Tetra in HEK-Gqi5 cells stably expressing CCR2
Format: cell-based
Details: FLIPR Tetra calcium assay
Description: HEK-Gqi5 cells stably expressing CCR2 were cultured in (DMEM high glucose, 10% FBS, 1% PSA, 400 μg/ml geneticin and 50 μg/ml hygromycin. Appropriate positive control chemokines (MCP-1, MIP1A or RANTES) was used as the positive control agonist for screening compound-induced calcium activity assayed on the FLIPR^Tetra. The drug plates were prepared in 384-well microplates using the EP3 and the MuItiPROBE robotic liquid handling systems. Compounds were synthesized and tested for CCR^2 activity.

Sequence of CCR2 (P41597 whole entry, species assumed): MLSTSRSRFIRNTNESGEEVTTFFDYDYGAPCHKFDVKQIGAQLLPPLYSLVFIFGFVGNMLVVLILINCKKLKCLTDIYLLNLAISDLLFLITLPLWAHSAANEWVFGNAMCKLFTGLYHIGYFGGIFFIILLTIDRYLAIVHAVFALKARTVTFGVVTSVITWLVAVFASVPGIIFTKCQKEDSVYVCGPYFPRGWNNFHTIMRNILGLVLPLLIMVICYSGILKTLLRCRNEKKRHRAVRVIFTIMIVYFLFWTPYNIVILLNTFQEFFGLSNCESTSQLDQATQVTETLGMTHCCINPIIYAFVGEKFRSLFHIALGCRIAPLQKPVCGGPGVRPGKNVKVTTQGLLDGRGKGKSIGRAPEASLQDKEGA

SMILES | CCR2 % ANTAGONISM [%] | IC50 [nM]
C[S+]([O-])c1ccc(Cl)cc1NS(=O)(=O)c1ccc(Cl)cc1 (stereo not drawn) [4-chloro-N-[5-chloro-2-(methylsulfinyl)phenyl]benzenesulfonamide] | 91 | 62
Nc1cc(CSc2ccc(Cl)cc2NS(=O)(=O)c2cc3ccccc3o2)n[nH]1 [N-(2-{[(5-amino-1H-pyrazol-3-yl)methyl]thio}-5-chlorophenyl)-1-benzofuran-2-sulfonamide] | 105 | 25
C[S+]([O-])c1ccc(Cl)cc1NS(=O)(=O)c1ccccc1 (stereo not drawn) [N-[5-chloro-2-(methylsulfinyl)phenyl]benzenesulfonamide] | 48 | –
O=S(=O)(Nc1cc(Cl)ccc1SCc1c[nH]cn1)c1ccc(Cl)c(C(F)(F)F)c1 [4-chloro-N-{5-chloro-2-[(1H-imidazol-4-ylmethyl)thio]phenyl}-3-(trifluoromethyl)benzenesulfonamide] | 83 | 68
Nc1cccc(C[S+]([O-])c2ccccc2NS(=O)(=O)c2cc3ccccc3o2)c1 (stereo not drawn) [N-{2-[(3-aminobenzyl)sulfinyl]phenyl}-1-benzofuran-2-sulfonamide] | 110 | 58
CNC(=O)CS(=O)(=O)c1ccc(Cl)cc1NS(=O)(=O)c1ccc(Cl)c(C(F)(F)F)c1 [2-{[4-chloro-2-({[4-chloro-3-(trifluoromethyl)phenyl]sulfonyl}amino)phenyl]sulfonyl}-N-methylacetamide] | 96 | 469
Nc1cccc(CS(=O)(=O)c2ccc(Cl)cc2NS(=O)(=O)c2ccc(Cl)cc2)c1 [N-{2-[(3-aminobenzyl)sulfonyl]-5-chlorophenyl}-4-chlorobenzenesulfonamide] | 99 | 421
C[S+]([O-])c1ccc(Cl)cc1NS(=O)(=O)c1ccc(Cl)cc1F (stereo not drawn) [4-chloro-N-[5-chloro-2-(methylsulfinyl)phenyl]-2-fluorobenzenesulfonamide] | 103 | 85
CC(C)NC(=O)CC[S+]([O-])c1ccc(Cl)cc1NS(=O)(=O)c1ccc(Cl)c(C(F)(F)F)c1 (stereo not drawn) [3-{[4-chloro-2-({[4-chloro-3-(trifluoromethyl)phenyl]sulfonyl}amino)phenyl]sulfinyl}-N-isopropylpropanamide] | 93 | 1790
CSc1ccc(Cl)cc1NS(=O)(=O)c1ccco1 [N-[5-chloro-2-(methylthio)phenyl]furan-2-sulfonamide] | 93 | 940
CN(C)C(=O)CCS(=O)(=O)c1ccc(Cl)cc1NS(=O)(=O)c1ccc(Cl)cc1F [3-[(4-chloro-2-{[(4-chloro-2-fluorophenyl)sulfonyl]amino}phenyl)sulfonyl]-N,N-dimethylpropanamide] | 97 | 211
O=S(=O)(Nc1cc(Cl)ccc1SCc1ncc[nH]1)c1ccc(Cl)c(C(F)(F)F)c1 [4-chloro-N-{5-chloro-2-[(1H-imidazol-2-ylmethyl)thio]phenyl}-3-(trifluoromethyl)benzenesulfonamide] | 84 | 190
Nc1nc(CS(=O)(=O)c2ccc(Cl)cc2NS(=O)(=O)c2cc3ccccc3o2)cs1 [N-(2-{[(2-amino-1,3-thiazol-4-yl)methyl]sulfonyl}-5-chlorophenyl)-1-benzofuran-2-sulfonamide] | 102 | 83
CN(C)C(=O)CCS(=O)(=O)c1ccc(Cl)cc1NS(=O)(=O)c1ccc(F)cc1F [3-[(4-chloro-2-{[(2,4-difluorophenyl)sulfonyl]amino}phenyl)sulfonyl]-N,N-dimethylpropanamide] | 89 | 1580
Cc1ccc(S(=O)(=O)Nc2cc(Cl)ccc2[S+](C)[O-])cc1[N+](=O)[O-] (stereo not drawn) [N-[5-chloro-2-(methylsulfinyl)phenyl]-4-methyl-3-nitrobenzenesulfonamide] | 101 | 181
O=S(=O)(Nc1cc(Cl)ccc1SC(F)(F)F)c1cc2ccccc2o1 [N-{5-chloro-2-[(trifluoromethyl)thio]phenyl}-1-benzofuran-2-sulfonamide] | 92 | 333
O=S(=O)(CCO)c1ccc(Cl)cc1NS(=O)(=O)c1ccc(Cl)c(C(F)(F)F)c1 [4-chloro-N-{5-chloro-2-[(2-hydroxyethyl)sulfonyl]phenyl}-3-(trifluoromethyl)benzenesulfonamide] | 96 | 95
CC(C)(C)OC(=O)Nc1nc(CS(=O)(=O)c2ccc(Cl)cc2NS(=O)(=O)c2cc3ccccc3o2)cs1 [tert-butyl {4-[({2-[(1-benzofuran-2-ylsulfonyl)amino]-4-chlorophenyl}sulfonyl)methyl]-1,3-thiazol-2-yl}carbamate] | 72 | –
Cc1ccc(S(=O)(=O)Nc2cc(Cl)ccc2S(C)(=O)=O)cc1[N+](=O)[O-] [N-[5-chloro-2-(methylsulfonyl)phenyl]-4-methyl-3-nitrobenzenesulfonamide] | 89 | 207
O=[N+]([O-])c1ccc(CSc2ccc(Cl)cc2NS(=O)(=O)c2cc3ccccc3o2)cc1 [N-{5-chloro-2-[(4-nitrobenzyl)thio]phenyl}-1-benzofuran-2-sulfonamide] | 82 | 147
O=S(=O)(Nc1cc(Cl)ccc1S(=O)(=O)C(F)(F)F)c1cc2ccccc2o1 [N-{5-chloro-2-[(trifluoromethyl)sulfonyl]phenyl}-1-benzofuran-2-sulfonamide] | 91 | 73
O=S(=O)(Cc1ccccc1)c1ccc(Cl)cc1NS(=O)(=O)c1cc2ccccc2o1 [N-[2-(benzylsulfonyl)-5-chlorophenyl]-1-benzofuran-2-sulfonamide] | 90 | 34
C[S+]([O-])c1ccc(Cl)cc1NS(=O)(=O)c1ccc(Cl)c(Cl)c1 (stereo not drawn) [3,4-dichloro-N-[5-chloro-2-(methylsulfinyl)phenyl]benzenesulfonamide] | 87 | 44
O=S(=O)(Nc1cc(Cl)ccc1SCc1c[nH]cn1)c1cc2ccccc2o1 [N-{5-chloro-2-[(1H-imidazol-4-ylmethyl)thio]phenyl}-1-benzofuran-2-sulfonamide] | 100 | 10
CN(C)C(=O)CCSc1ccc(Cl)cc1NS(=O)(=O)c1ccc(F)cc1F [3-[(4-chloro-2-{[(2,4-difluorophenyl)sulfonyl]amino}phenyl)thio]-N,N-dimethylpropanamide] | 43 | 2150
